Laboratory results as given in ChEMBL document CHEMBL3407356, “Design, synthesis, biological evaluation and molecular modeling of dihydropyrazole sulfonamide derivatives as potential COX-1/COX-2 inhibitors” (Bioorg Med Chem Lett, 2015).

Tests used:
[1] = Cytotoxicity against human 293T cells after 24 hrs by MTT assay; assay type: cell-based; conditions: HEK-293T cells
MCF7 = test: Antiproliferative activity against human MCF7 cells after 24 hrs by MTT assay; assay type: functional, cell-based; conditions: MCF7, 24 h
[2] = biological target: Prostaglandin G/H synthase 1 (Homo sapiens, UniProt P23219); test: Inhibition of human recombinant COX1 by ELISA
HeLa = test: Antiproliferative activity against human HeLa cells after 24 hrs by MTT assay; assay type: functional, cell-based
[3] = biological target: T1, Prostaglandin G/H synthase 2 (Homo sapiens, UniProt P35354); test: Inhibition of human recombinant COX2 by ELISA
T1 sequence (P35354 whole entry): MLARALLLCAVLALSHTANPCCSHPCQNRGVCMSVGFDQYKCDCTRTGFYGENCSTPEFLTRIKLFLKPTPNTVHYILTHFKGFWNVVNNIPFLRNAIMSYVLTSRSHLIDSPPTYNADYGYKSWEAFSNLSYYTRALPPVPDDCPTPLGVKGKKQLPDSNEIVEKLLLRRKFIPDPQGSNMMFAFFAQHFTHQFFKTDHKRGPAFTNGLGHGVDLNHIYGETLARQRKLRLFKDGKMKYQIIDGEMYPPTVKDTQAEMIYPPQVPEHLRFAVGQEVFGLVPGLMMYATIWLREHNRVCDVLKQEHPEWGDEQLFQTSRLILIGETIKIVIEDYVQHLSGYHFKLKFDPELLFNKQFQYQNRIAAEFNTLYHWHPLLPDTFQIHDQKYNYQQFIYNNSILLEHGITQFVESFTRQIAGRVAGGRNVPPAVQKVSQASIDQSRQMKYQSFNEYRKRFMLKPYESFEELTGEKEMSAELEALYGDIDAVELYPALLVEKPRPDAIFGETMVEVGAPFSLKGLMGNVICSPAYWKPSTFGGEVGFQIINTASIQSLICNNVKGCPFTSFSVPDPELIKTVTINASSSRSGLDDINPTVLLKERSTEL

[4] = Antiproliferative activity against mouse B16F10 cells after 24 hrs by MTT assay; assay type: functional, cell-based; conditions: B16-F10, 24 h

Chain of Prostaglandin G/H synthase 1 (P23219 whole entry): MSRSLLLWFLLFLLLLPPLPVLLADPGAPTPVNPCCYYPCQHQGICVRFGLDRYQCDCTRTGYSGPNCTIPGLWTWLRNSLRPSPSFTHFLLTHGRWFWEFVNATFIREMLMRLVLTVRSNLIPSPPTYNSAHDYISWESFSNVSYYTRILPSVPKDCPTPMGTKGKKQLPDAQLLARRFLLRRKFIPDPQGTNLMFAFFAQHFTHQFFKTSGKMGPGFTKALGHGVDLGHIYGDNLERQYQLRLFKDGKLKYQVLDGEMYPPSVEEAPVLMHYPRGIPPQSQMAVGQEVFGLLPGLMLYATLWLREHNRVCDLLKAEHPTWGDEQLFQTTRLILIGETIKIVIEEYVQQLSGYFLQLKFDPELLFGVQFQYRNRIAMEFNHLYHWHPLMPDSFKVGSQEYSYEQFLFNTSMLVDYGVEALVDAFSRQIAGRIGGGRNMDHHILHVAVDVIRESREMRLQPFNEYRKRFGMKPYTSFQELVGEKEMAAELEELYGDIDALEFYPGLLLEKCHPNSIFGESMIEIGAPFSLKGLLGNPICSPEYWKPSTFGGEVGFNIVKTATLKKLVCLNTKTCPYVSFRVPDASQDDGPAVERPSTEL

IC50 (MCF7) [µM]	IC50 [2] [µM]	IC50 (HeLa) [µM]	IC50 [3] [µM]	SMILES	CC50 at 24 h [1] [µM]	IC50 [4] [µM]
8.29	99.9	30.1	3.28	Cc1ccccc1C1C2CCc3ccccc3C2=NN1c1ccc(S(N)(=O)=O)cc1 (configuration not stated)	70.8	2.93
29.4	91.5	18	2.48	Cc1cccc(C2C3CCc4ccccc4C3=NN2c2ccc(S(N)(=O)=O)cc2)c1 (configuration not stated)	67.2	9.06
4.24	88.4	9.86	2.16	Cc1ccc(C2C3CCc4ccccc4C3=NN2c2ccc(S(N)(=O)=O)cc2)cc1 (configuration not stated)	63.6	17.1
59.1	96.2	14.4	2.63	COc1ccccc1C1C2CCc3ccccc3C2=NN1c1ccc(S(N)(=O)=O)cc1 (configuration not stated)	67.2	11.8
10.4	85.5	19.1	1.12	COc1cccc(C2C3CCc4ccccc4C3=NN2c2ccc(S(N)(=O)=O)cc2)c1 (configuration not stated)	68.2	1.78
53.5	100	11.7	3.48	NS(=O)(=O)c1ccc(N2N=C3c4ccccc4CCC3C2c2cccc(Br)c2)cc1 (configuration not stated)	52.6	28
11	86.2	4.82	1.76	NS(=O)(=O)c1ccc(N2N=C3c4ccccc4CCC3C2c2cccc(O)c2)cc1 (configuration not stated)	69.2	33.3
24.4	99.8	5.28	3.66	NS(=O)(=O)c1ccc(N2N=C3c4ccccc4CCC3C2c2c(F)cccc2Cl)cc1 (configuration not stated)	68.3	37.4
41.2	59.4	36.7	0.46	Cc1ccccc1C1C2COc3ccccc3C2=NN1c1ccc(S(N)(=O)=O)cc1 (configuration not stated)	64.8	22.2
42.9	68.5	13.9	0.33	COc1ccccc1C1C2COc3ccccc3C2=NN1c1ccc(S(N)(=O)=O)cc1 (configuration not stated)	83.2	10.2
20.2	78.1	7.29	1.02	COc1ccc(C2C3COc4ccccc4C3=NN2c2ccc(S(N)(=O)=O)cc2)cc1 (configuration not stated)	69.5	15.8
23.9	86.8	13.2	2.28	NS(=O)(=O)c1ccc(N2N=C3c4ccccc4OCC3C2c2ccccc2Cl)cc1 (configuration not stated)	75	12.1
27.8	90.2	2.94	1.26	NS(=O)(=O)c1ccc(N2N=C3c4ccccc4OCC3C2c2ccccc2Br)cc1 (configuration not stated)	81.6	12
46.8	96.3	17.5	2.74	NS(=O)(=O)c1ccc(N2N=C3c4ccccc4OCC3C2c2ccc(Cl)cc2Cl)cc1 (configuration not stated)	57.1	4.76
5.94	–	7.35	–	Cc1ccc(-c2cc(C(F)(F)F)nn2-c2ccc(S(N)(=O)=O)cc2)cc1 [CELECOXIB]	72.4	4.56

Continued, compound first:

SMILES	IC50 (MCF7) [µM]	IC50 [2] [µM]	IC50 (HeLa) [µM]	IC50 [3] [µM]	CC50 at 24 h [1] [µM]	IC50 [4] [µM]
NS(=O)(=O)c1ccc(N2N=C3c4ccccc4CCC3C2c2ccccc2)cc1 (configuration not stated)	5.34	> 100	25.5	8.34	66.9	5.01
NS(=O)(=O)c1ccc(N2N=C3c4ccccc4CCC3C2c2ccccc2F)cc1 (configuration not stated)	13.2	> 100	37.2	11.9	57.9	3.18
NS(=O)(=O)c1ccc(N2N=C3c4ccccc4CCC3C2c2cccc(F)c2)cc1 (configuration not stated)	59.1	> 100	5.06	4.83	57.9	11.2
NS(=O)(=O)c1ccc(N2N=C3c4ccccc4CCC3C2c2ccc(F)cc2)cc1 (configuration not stated)	6.89	> 100	22.4	15.3	59.8	3.06
NS(=O)(=O)c1ccc(N2N=C3c4ccccc4CCC3C2c2ccccc2Cl)cc1 (configuration not stated)	25.9	> 100	13.7	4.92	65.3	20.1
NS(=O)(=O)c1ccc(N2N=C3c4ccccc4CCC3C2c2ccccc2Br)cc1 (configuration not stated)	5.83	> 100	7.21	12.7	61.1	3.56
NS(=O)(=O)c1ccc(N2N=C3c4ccccc4CCC3C2c2ccc(Br)cc2)cc1 (configuration not stated)	36.5	> 100	6.31	26.3	69.3	28.8
NS(=O)(=O)c1ccc(N2N=C3c4ccccc4CCC3C2c2ccc(C(F)(F)F)cc2)cc1 (configuration not stated)	33.9	> 100	11.2	18.3	55.2	5.72
NS(=O)(=O)c1ccc(N2N=C3c4ccccc4CCC3C2c2ccc(Cl)cc2Cl)cc1 (configuration not stated)	13.7	> 100	3.57	32.3	64	53.2
NS(=O)(=O)c1ccc(N2N=C3c4ccccc4OCC3C2c2ccccc2F)cc1 (configuration not stated)	30.5	> 100	9.87	7.24	70.5	35.2
NS(=O)(=O)c1ccc(N2N=C3c4ccccc4OCC3C2c2ccc(Cl)cc2)cc1 (configuration not stated)	28	> 100	7.73	8.24	61.4	3.76
NS(=O)(=O)c1ccc(N2N=C3c4ccccc4OCC3C2c2ccc(Br)cc2)cc1 (configuration not stated)	46	> 100	8.4	6.88	63.2	7.3
NS(=O)(=O)c1ccc(N2N=C3c4ccccc4OCC3C2c2c(F)cccc2Cl)cc1 (configuration not stated)	40.5	> 100	7.76	16.3	66.2	8.49
COc1cc2ncnc(Nc3ccc(F)c(Cl)c3)c2cc1OCCCN1CCOCC1 [GEFITINIB]	–	–	–	–	52	–
